US20250281457A1, “TREATMENT OR PREVENTION OF DENGUE VIRAL INFECTION” (Janssen Pharmaceuticals, Inc., priority 2022, published 2025)
Like-named read-outs stand apart in the source and are kept apart here.

Test: Effect of food on plasma pharmacokinetics after single oral dose of SF2a/b (Example 2)
Type: in vivo, human
Settings: both sexes, human, plasma, oral, 800 mg; for Tmax: read-out: tmax, Median
Description: The effect of food on the pharmacokinetics (PK) of Compound (a) was assessed in healthy participants after a single oral dose of SF2a/b, described in Example 1, administered at different dose levels in a randomized single dose, 2-period crossover study. The effect of food on the PK of Compound (a) was determined at 3 different dose levels (50 mg, 200 mg, and 800 mg) for a standardized breakfast; at one dose level (800 mg) for a high-fat, high-calorie breakfast; at two dose levels (200 mg and 800 mg) for a low-fat, low-calorie breakfast, as well as for a low-fat, high-calorie breakfast. 124 healthy adult participants (male and female, 18 to 55 years of age) were enrolled in this study. The volunteers were divided in six panels, which were organized as follows: • Panel […]: • Treatment D: A single 800-mg dose (4×200-mg tablets) of Compound (a) SF2b in fasted conditions. • Treatment E: A single 800-mg dose (4×200-mg tablets) of Compound (a) SF2b in fed conditions (standardized breakfast). • Treatments D and E (treatment sequence group 1 [n=8]: DE; treatment sequence group 2 [n=8]: ED). Panel 4, n=14: • Treatment F: A single 200-mg dose (1×200-mg tablet) of Compound (a) SF2b in fasted conditions. • Treatment G: A single 200-mg dose (1×200-mg tablet) of Compound (a) SF2b, in fed conditions (standardized breakfast). • Treatments F and G (treatment sequence group 1 [n=7]: FG; treatment sequence group 2 [n=7]: GF). Panel […]: • Treatment H: A single 50-mg dose (1×50-mg tablet) of Compound (a) SF2a in fasted conditions. • Treatment I: A single 50-mg dose (1×50-mg tablet) of Compound (a) SF2a in fed conditions (standardized breakfast). • Treatments H and I (treatment sequence group 1 [n=7]: HI; treatment sequence group 2 [n=7]: IH). Panel 6 (n=16): • Treatment J: single 800-mg dose (4×200-mg tablets) of Compound (a) administered as SF2b in fasted conditions. • Treatment K: single 800-mg dose (4×200-mg tablets) of Compound (a) administered as SF2b in fed conditions (high-fat, high-calorie breakfast). • Treatments J and K (treatment sequence group 1 [n=8]: JK; treatment sequence group 2 [n=8]: KJ). Panel 7 (n=32): • Treatment L: single 800-mg dose (4×200-mg tablets) of Compound (a) administered as SF2b in fed conditions (low-fat, low-calorie breakfast). • Treatment M: single 800-mg dose (4×200-mg tablets) of Compound (a) administered as SF2b in fed conditions (low-fat, high-calorie breakfast). • Treatment L (n=16) or Treatment M (n=16). Panel 8 (n=32): • Treatment N: single 200-mg dose (1×200-mg tablet) of Compound (a) administered as SF2b in fed conditions (low-fat, low-calorie breakfast). • Treatment O: single 200-mg dose (1×200-mg tablet) of Compound (a) administered as SF2b in fed conditions (low-fat, high-calorie breakfast). • Treatment N (n=16) or Treatment O (n=16). Tablets were administered orally, together with approximately 240 mL of non-carbonated water, in fasted or fed conditions. […] On day 1 of all treatments in each panel, the participants had fasted overnight for at least 10 hours before study drug intake. Intake of water was not allowed from 2 hours before and until 2 hours after study drug intake, except for the water used for study drug intake and breakfast. In case of intake in fed conditions, study drug was administered within 10 minutes after completing a standardized breakfast (Treatments E, G, and I), or a high-fat, high-calorie breakfast (Treatment K), a low-fat, low-calorie breakfast (Treatments L and N), or a low-fat, high-calorie breakfast (Treatments M and O). For treatments E, G, and I a standardized breakfast was served, consisting of (or its equivalent) 4 slices of bread, 2 slices of ham or cheese, butter, jelly, and 1 or 2 cups (up to 355 mL) of decaffeinated coffee or tea with milk and/or sugar, if desired (containing approximately: fat: 21 g, carbohydrates: 67 g, proteins: 19 g; total calories: 533 kcal). For treatment K in a high-fat, high-calorie breakfast was served. […]

**Q.** With COc1cc(NC(C(=O)c2c[nH]c3ccc(OC(F)(F)F)cc23)c2ccc(Cl)cc2OC)cc(S(C)(=O)=O)c1 (stereo not drawn) [Compound (a)] as the compound, how does the Cmax (800 mg SF2b, fed, high-fat, high-calorie breakfast, read-out: Cmax, Geometric LS Means Treatment K) read?
**A.** Its Cmax is 4050 ng/mL.

**Q.** What about the AUC(0-t) (800 mg SF2b, fed, low-fat, high-calorie breakfast, read-out: AUClast, Geometric LS Means Treatment M) of the same compound?
**A.** Its AUC(0-t) is 227 µg·h/mL.

**Q.** And the AUC(0-inf) (800 mg SF2b, fed, low-fat, high-calorie breakfast, read-out: AUC∞, Geometric LS Means Treatment M)?
**A.** Its AUC(0-inf) is 237 µg·h/mL.

**Q.** What about the Cmax (800 mg SF2b, fed, low-fat, high-calorie breakfast, read-out: Cmax, Geometric LS Means Treatment M) of the same compound?
**A.** The Cmax was 2060 ng/mL.

**Q.** What about the AUC(0-t) (800 mg SF2b, fed, low-fat, low-calorie breakfast, read-out: AUClast, Geometric LS Means Treatment L) of the same compound?
**A.** The AUC(0-t) was 210 µg·h/mL.

**Q.** What about the AUC(0-inf) (800 mg SF2b, fed, low-fat, low-calorie breakfast, read-out: AUC∞, Geometric LS Means Treatment L) of the same compound?
**A.** The AUC(0-inf) was 221 µg·h/mL.

**Q.** What about the Cmax (800 mg SF2b, fed, low-fat, low-calorie breakfast, read-out: Cmax, Geometric LS Means Treatment L) of the same compound?
**A.** Its Cmax is 2060 ng/mL.

**Q.** And the AUC(0-t) (800 mg SF2b, fed, standardized breakfast (Tables 5F, 5H), read-out: AUClast, Geometric LS Means Treatment E)?
**A.** The AUC(0-t) was 347 µg·h/mL.

**Q.** And the AUC(0-inf) (800 mg SF2b, fed, standardized breakfast (Tables 5F, 5H), read-out: AUC∞, Geometric LS Means Treatment E)?
**A.** The AUC(0-inf) was 341 µg·h/mL.

**Q.** And the Cmax (800 mg SF2b, fed, standardized breakfast (Tables 5F, 5H), read-out: Cmax, Geometric LS Means Treatment E)?
**A.** Its Cmax is 3400 ng/mL.

**Q.** What about the AUC(0-t) (800 mg SF2b, standardized breakfast, linear mixed effects model (Table 5A), read-out: AUClast, Geometric Mean Treatment E) of the same compound?
**A.** The AUC(0-t) was 337 µg·h/mL.

**Q.** And the AUC(0-inf) (800 mg SF2b, standardized breakfast, linear mixed effects model (Table 5A), read-out: AUC∞, Geometric Mean Treatment E)?
**A.** The AUC(0-inf) was 352 µg·h/mL.

**Q.** What about the Cmax (800 mg SF2b, standardized breakfast, linear mixed effects model (Table 5A), read-out: Cmax, Geometric Mean Treatment E) of the same compound?
**A.** Its Cmax is 3380 ng/mL.

**Q.** What about the AUC(0-t) (Treatment D: single 800 mg (SF2b), fasted, read-out: AUClast, Geo. Mean) of the same compound?
**A.** The AUC(0-t) was 133 µg·h/mL.

**Q.** What about the AUC(0-t) (Treatment D: single 800 mg (SF2b), fasted, read-out: AUClast, Mean) of the same compound?
**A.** Its AUC(0-t) is 149 µg·h/mL.

**Q.** And the AUC(0-t) (Treatment D: single 800 mg (SF2b), fasted, read-out: AUClast, Median)?
**A.** Its AUC(0-t) is 138 µg·h/mL.

**Q.** What about the AUC(0-inf) (Treatment D: single 800 mg (SF2b), fasted, read-out: AUC∞, Geo. Mean) of the same compound?
**A.** Its AUC(0-inf) is 142 µg·h/mL.

**Q.** What about the AUC(0-inf) (Treatment D: single 800 mg (SF2b), fasted, read-out: AUC∞, Mean) of the same compound?
**A.** Its AUC(0-inf) is 160 µg·h/mL.

**Q.** And the AUC(0-inf) (Treatment D: single 800 mg (SF2b), fasted, read-out: AUC∞, Median)?
**A.** Its AUC(0-inf) is 144 µg·h/mL.

**Q.** What about the Cmax (Treatment D: single 800 mg (SF2b), fasted, read-out: Cmax, Geo. Mean) of the same compound?
**A.** Its Cmax is 1150 ng/mL.

**Q.** What about the Cmax (Treatment D: single 800 mg (SF2b), fasted, read-out: Cmax, Mean) of the same compound?
**A.** Its Cmax is 1300 ng/mL.

**Q.** What about the Cmax (Treatment D: single 800 mg (SF2b), fasted, read-out: Cmax, Median) of the same compound?
**A.** The Cmax was 1450 ng/mL.

**Q.** And the half-life (Treatment D: single 800 mg (SF2b), fasted, read-out: t1/2, term, Geo. Mean (converted))?
**A.** Its half-life is 7.49 days.

**Q.** What about the half-life (Treatment D: single 800 mg (SF2b), fasted, read-out: t1/2, term, Mean (converted)) of the same compound?
**A.** The half-life was 8.06 days.

**Q.** What about the half-life (Treatment D: single 800 mg (SF2b), fasted, read-out: t1/2, term, Median (converted)) of the same compound?
**A.** The half-life was 7.46 days.

**Q.** What about the Tmax (Treatment D: single 800 mg (SF2b), fasted) of the same compound?
**A.** The Tmax was 8 h.

**Q.** And the AUC(0-t) (Treatment E: single 800 mg (SF2b), fed, standardized breakfast, read-out: AUClast, Geo. Mean)?
**A.** The AUC(0-t) was 340 µg·h/mL.

**Q.** And the AUC(0-t) (Treatment E: single 800 mg (SF2b), fed, standardized breakfast, read-out: AUClast, Mean)?
**A.** Its AUC(0-t) is 357 µg·h/mL.

**Q.** What about the AUC(0-t) (Treatment E: single 800 mg (SF2b), fed, standardized breakfast, read-out: AUClast, Median) of the same compound?
**A.** The AUC(0-t) was 337 µg·h/mL.

**Q.** And the AUC(0-inf) (Treatment E: single 800 mg (SF2b), fed, standardized breakfast, read-out: AUC∞, Geo. Mean)?
**A.** Its AUC(0-inf) is 337 µg·h/mL.

**Q.** And the AUC(0-inf) (Treatment E: single 800 mg (SF2b), fed, standardized breakfast, read-out: AUC∞, Mean)?
**A.** Its AUC(0-inf) is 348 µg·h/mL.

**Q.** What about the AUC(0-inf) (Treatment E: single 800 mg (SF2b), fed, standardized breakfast, read-out: AUC∞, Median) of the same compound?
**A.** The AUC(0-inf) was 345 µg·h/mL.

**Q.** And the Cmax (Treatment E: single 800 mg (SF2b), fed, standardized breakfast, read-out: Cmax, Geo. Mean)?
**A.** Its Cmax is 3400 ng/mL.

**Q.** And the Cmax (Treatment E: single 800 mg (SF2b), fed, standardized breakfast, read-out: Cmax, Mean)?
**A.** Its Cmax is 3500 ng/mL.

**Q.** And the Cmax (Treatment E: single 800 mg (SF2b), fed, standardized breakfast, read-out: Cmax, Median)?
**A.** The Cmax was 3510 ng/mL.

**Q.** And the half-life (Treatment E: single 800 mg (SF2b), fed, standardized breakfast, read-out: t1/2, term, Geo. Mean (converted))?
**A.** The half-life was 6.9 days.

**Q.** And the half-life (Treatment E: single 800 mg (SF2b), fed, standardized breakfast, read-out: t1/2, term, Mean (converted))?
**A.** The half-life was 7.31 days.

**Q.** And the half-life (Treatment E: single 800 mg (SF2b), fed, standardized breakfast, read-out: t1/2, term, Median (converted))?
**A.** The half-life was 6.26 days.

**Q.** And the Tmax (Treatment E: single 800 mg (SF2b), fed, standardized breakfast)?
**A.** The Tmax was 6 h.
